Activity calls are given as the source filed them. The rule behind the calls is not given here.
Columns and labels:
[1] = biological target: T1, 5-hydroxytryptamine receptor 2A (Homo sapiens, UniProt P28223); assay: (§1) Agonist activity at recombinant human 5HT2A receptor expressed in Flp-In-293 cells assessed as increase in calcium influx measured for 300 secs by Fluo-4 dye based FLIPR assay relative to control; format: cell-based; settings: flp-in-293, 5 min
[2] = biological target: T2, 5-hydroxytryptamine receptor 2C (Homo sapiens, UniProt P28335); assay: (§2) Agonist activity at recombinant human unedited 5HT2C receptor isoform INI expressed in Flp-In-293 cells assessed as increase in calcium influx measured for 300 secs by Fluo-4 dye based FLIPR assay; format: functional, cell-based
T2 sequence (P28335 whole entry): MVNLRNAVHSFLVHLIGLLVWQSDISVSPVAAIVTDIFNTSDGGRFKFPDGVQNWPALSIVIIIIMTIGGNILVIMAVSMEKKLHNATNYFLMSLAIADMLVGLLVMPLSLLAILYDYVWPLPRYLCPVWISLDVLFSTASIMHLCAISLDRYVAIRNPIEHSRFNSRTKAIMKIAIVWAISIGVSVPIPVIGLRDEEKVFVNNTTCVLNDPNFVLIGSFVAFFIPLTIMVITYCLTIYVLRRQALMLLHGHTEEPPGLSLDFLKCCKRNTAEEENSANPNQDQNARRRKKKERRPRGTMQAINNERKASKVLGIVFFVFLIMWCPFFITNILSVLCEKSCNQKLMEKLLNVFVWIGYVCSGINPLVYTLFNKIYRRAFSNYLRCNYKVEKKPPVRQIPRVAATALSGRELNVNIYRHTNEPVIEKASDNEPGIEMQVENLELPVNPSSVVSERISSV

[3] = biological target: T3, 5-hydroxytryptamine receptor 2C (Homo sapiens) (UniProt P28335); assay: Agonist activity at recombinant human unedited 5HT2C receptor isoform INI expressed in Flp-In-293 cells assessed as increase in calcium influx measured for 300 secs by Fluo-4 dye based FLIPR assay relative to control; format: functional, cell-based
T3 sequence (whole entry): T2 sequence (P28335 whole entry)

[4] = biological target: T4, 5-hydroxytryptamine receptor 2B (Homo sapiens, UniProt P41595); assay: Agonist activity at recombinant human 5HT2B receptor expressed in Flp-In-293 cells assessed as increase in calcium influx up to 10 uM measured for 300 secs by Fluo-4 dye based FLIPR assay; format: cell-based; settings: flp-in-293, 5 min
T4 sequence (P41595 whole entry): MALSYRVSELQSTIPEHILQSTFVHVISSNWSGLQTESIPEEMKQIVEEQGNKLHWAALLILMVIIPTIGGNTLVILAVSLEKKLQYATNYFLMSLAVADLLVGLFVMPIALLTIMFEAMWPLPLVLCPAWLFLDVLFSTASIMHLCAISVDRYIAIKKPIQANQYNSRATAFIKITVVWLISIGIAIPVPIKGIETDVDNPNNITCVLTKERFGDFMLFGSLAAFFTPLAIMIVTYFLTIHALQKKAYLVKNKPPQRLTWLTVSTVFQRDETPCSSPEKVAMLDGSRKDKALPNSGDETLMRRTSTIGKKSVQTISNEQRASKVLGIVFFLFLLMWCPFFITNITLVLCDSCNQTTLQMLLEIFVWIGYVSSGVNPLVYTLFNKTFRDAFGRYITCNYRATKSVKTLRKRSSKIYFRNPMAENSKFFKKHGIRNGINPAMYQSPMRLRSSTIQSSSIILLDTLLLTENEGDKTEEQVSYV

[5] = biological target: T1, 5-hydroxytryptamine receptor 2A; assay: Agonist activity at recombinant human 5HT2A receptor expressed in Flp-In-293 cells assessed as increase in calcium influx measured for 300 secs by Fluo-4 dye based FLIPR assay; format: cell-based
[6] = biological target: 5-HT2A receptor (Homo sapiens, UniProt P28223); assay: as §1; format: cell-based; settings: Flp-In-293 cells expressing recombinant human 5HT2A receptor
5-HT2A receptor, sequence (P28223 whole entry, canonical isoform): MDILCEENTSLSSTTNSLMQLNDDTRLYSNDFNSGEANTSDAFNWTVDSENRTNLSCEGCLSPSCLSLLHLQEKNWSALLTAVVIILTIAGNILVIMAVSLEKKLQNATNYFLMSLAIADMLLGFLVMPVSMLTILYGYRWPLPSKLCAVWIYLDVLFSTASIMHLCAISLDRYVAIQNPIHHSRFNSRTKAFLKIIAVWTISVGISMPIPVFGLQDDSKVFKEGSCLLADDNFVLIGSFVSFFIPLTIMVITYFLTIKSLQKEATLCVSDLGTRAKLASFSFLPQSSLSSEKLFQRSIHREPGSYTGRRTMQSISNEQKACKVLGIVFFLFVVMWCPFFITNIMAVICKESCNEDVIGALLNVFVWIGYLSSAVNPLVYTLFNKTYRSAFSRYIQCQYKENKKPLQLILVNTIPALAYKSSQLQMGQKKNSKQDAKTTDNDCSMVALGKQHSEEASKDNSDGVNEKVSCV

[7] = biological target: Serotonin 2 receptors; 5-HT2a & 5-HT2c (Homo sapiens) (UniProt P28223+P28335); assay: Selectivity ratio of EC50 for recombinant human 5HT2A receptor expressed in Flp-In-293 cells to EC50 for recombinant human unedited 5HT2C receptor isoform INI expressed in Flp-In-293 cells; format: cell-based
Serotonin 2 receptors; 5-HT2a & 5-HT2c (Homo sapiens), sequence (P28223 whole entry, looked up, one chain of several, canonical isoform): as the sequence (P28223 whole entry, canonical isoform) above

[8] = biological target: T4, 5-hydroxytryptamine receptor 2B; assay: Agonist activity at recombinant human 5HT2B receptor expressed in Flp-In-293 cells assessed as increase in calcium influx measured for 300 secs by Fluo-4 dye based FLIPR assay; format: cell-based
[9] = biological target: 5-HT2B receptor (Homo sapiens, UniProt P41595); assay: Agonist activity at recombinant human 5HT2B receptor expressed in Flp-In-293 cells assessed as increase in calcium influx measured for 300 secs by Fluo-4 dye based FLIPR assay relative to control; format: cell-based; settings: Flp-In-293 cells expressing recombinant human 5HT2B receptor
5-HT2B receptor, sequence (P41595 whole entry): as the sequence (P41595 whole entry) above

[10] = biological target: T3, 5-hydroxytryptamine receptor 2C (Homo sapiens); assay: as §2; format: functional, cell-based
[11] = biological target: T3, 5-hydroxytryptamine receptor 2C (Homo sapiens); assay: Agonist activity at recombinant human unedited 5HT2C receptor isoform INI expressed in Flp-In-293 cells assessed as increase in calcium influx up to 10 uM measured for 300 secs by Fluo-4 dye based FLIPR assay; format: functional, cell-based
[12] = biological target: T1, 5-hydroxytryptamine receptor 2A; assay: Agonist activity at recombinant human 5HT2A receptor expressed in Flp-In-293 cells assessed as increase in calcium influx up to 10 uM measured for 300 secs by Fluo-4 dye based FLIPR assay; format: cell-based; settings: flp-in-293, 5 min
[13] = species: Homo sapiens; assay: Selectivity ratio of EC50 for recombinant human 5HT2B receptor expressed in Flp-In-293 cells to EC50 for recombinant human unedited 5HT2C receptor isoform INI expressed in Flp-In-293 cells; format: cell-based

T1 sequence (P28223 whole entry, canonical isoform): as the sequence (P28223 whole entry, canonical isoform) above

SMILES	Emax [1] [%]	EC50 [2] [µM]	Emax [3] [%]	Activity [4]	EC50 [5] [µM]	Emax at 5 min [6] [%]	Ratio EC50 [7]	EC50 ([8]; read-out: EC50) [µM]	Emax at 5 min [9] [%]	EC50 ([8]; read-out: pEC50 (converted)) [µM]	pEC50 [10]	Activity [11]	Activity [12]	Ratio EC50 [13]
NCCc1c[nH]c2ccc(O)cc12 [SEROTONIN]	100													
Cl.NC[C@H]1C[C@]1(F)c1ccccc1Br		0.312	71	Not Active	0.122	38								
Cc1cccc([C@@]2(F)C[C@@H]2CN)c1.Cl		0.008	96	Not Active	0.162	71	20							
COc1ccccc1CNC[C@H]1C[C@]1(F)c1ccccc1		0.789	85		0.32	83		0.363	27					
NC[C@H]1C[C@]1(F)c1cccc(F)c1		0.003	107		0.003	83		0.002	106	0.00229				
NC[C@@H]1C[C@@]1(F)c1ccccc1		4.11	87		1.83	47		0.903	77					
Cl.NC[C@@H]1C[C@@]1(F)c1ccccc1Br				Not Active							inactive	inactive	Not Active	
COc1ccccc1CNCC1CC1(F)c1cc(F)ccc1OC (racemic)		0.229	103		0.031	92		0.285	61					
NC[C@H]1C[C@]1(F)c1cccc(Cl)c1		0.012	110		0.023	102		0.022	91					
CNC[C@H]1C[C@]1(F)c1ccccc1		0.291	96		0.156	40		0.565	42					
Cl.NC[C@@H]1C[C@@]1(F)c1cccc(F)c1				Not Active							inactive	inactive	Not Active	
COc1ccc(F)cc1C1(F)CC1CN (racemic)		0.598	90		0.352	86		0.116	79					
Cl.NC[C@@H]1C[C@@]1(F)c1cccc(Cl)c1		1.06	92	Not Active									Not Active	
NCC1C(c2ccccc2)C1(F)F (racemic)		4.43	82		3.68	43		2.35	62					
Cc1cccc([C@]2(F)C[C@H]2CN)c1.Cl		5.25	97	Not Active									Not Active	
NC[C@H]1C[C@]1(F)c1ccccc1		0.0047	98		0.01	106		0.01	104					2

Reference: ChEMBL document CHEMBL4359900 (Eur J Med Chem, 2019)
